In PMC10855113, “Opioid Analgesic as a Positive Allosteric Modulator of Acid-Sensing Ion Channels” (International Journal of Molecular Sciences, 2024):
Like-named read-outs stand apart in the source and are kept apart here. Where a SMILES comes first, the peptide text is derived from it. Bridges are numbered along the chain shown (N, C = ends). Where no end group is shown, it is not given here. [ ]: non-standard residue; d: D form.

What was measured:
[1] = system: ASIC3; conditions: mice; activation of ASIC3; ref [31],[32]; cited from earlier work
Excerpt: In this study, we have investigated the pharmacological effect of tafalgin (Taf) on ASICs. […] These channels, preferably having a neuronal localization, play an important role in the functioning of CNS and PNS, and are involved in the regulation of synaptic plasticity and learning, the fear perception, and responses to ischemic stroke, multiple sclerosis, and nociception. Positive modulators of ASICs are shown to have ...

[2] = system: ASIC3; design: method as in PMID 37918499; conditions: suppressing morphine-induced microglial activation through ASIC3 inhibition; ref [40]; cited from earlier work
[3] = system: ASIC channels; design: method as in PMID 34721074; conditions: dual-action ligand; ref [39]; cited from earlier work
[4] = molecular target: T1, rat ASIC3 (Rattus norvegicus, UniProt O35240); test: cell-based
T1 construct: expressed in transfected cells; host or cells: Xenopus laevis oocytes injected with cRNA from a PCi plasmid
T1 sequence (O35240 1-533): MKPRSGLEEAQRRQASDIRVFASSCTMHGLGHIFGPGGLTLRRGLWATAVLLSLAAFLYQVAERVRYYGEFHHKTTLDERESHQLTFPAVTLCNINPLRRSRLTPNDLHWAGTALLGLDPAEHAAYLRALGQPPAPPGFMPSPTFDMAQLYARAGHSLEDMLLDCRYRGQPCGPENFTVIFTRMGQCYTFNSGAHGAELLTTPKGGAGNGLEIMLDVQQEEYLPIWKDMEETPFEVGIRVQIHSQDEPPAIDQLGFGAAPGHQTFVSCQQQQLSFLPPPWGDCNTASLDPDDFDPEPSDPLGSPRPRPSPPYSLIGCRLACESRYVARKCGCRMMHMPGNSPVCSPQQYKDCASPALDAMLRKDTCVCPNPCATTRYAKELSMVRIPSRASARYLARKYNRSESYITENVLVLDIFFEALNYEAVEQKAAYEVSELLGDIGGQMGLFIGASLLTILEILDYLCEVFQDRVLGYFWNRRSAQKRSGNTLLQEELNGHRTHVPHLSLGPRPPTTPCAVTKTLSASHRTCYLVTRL

[5] = molecular target: T2, human ASIC3 (Homo sapiens, UniProt Q9UHC3); test: two-electrode voltage clamp, human ASIC3 in X. laevis oocytes; assay type: cell-based
T2 construct: expressed in transfected cells; host or cells: Xenopus laevis oocytes injected with cRNA from a pVAX1 plasmid
T2 sequence (Q9UHC3 1-531): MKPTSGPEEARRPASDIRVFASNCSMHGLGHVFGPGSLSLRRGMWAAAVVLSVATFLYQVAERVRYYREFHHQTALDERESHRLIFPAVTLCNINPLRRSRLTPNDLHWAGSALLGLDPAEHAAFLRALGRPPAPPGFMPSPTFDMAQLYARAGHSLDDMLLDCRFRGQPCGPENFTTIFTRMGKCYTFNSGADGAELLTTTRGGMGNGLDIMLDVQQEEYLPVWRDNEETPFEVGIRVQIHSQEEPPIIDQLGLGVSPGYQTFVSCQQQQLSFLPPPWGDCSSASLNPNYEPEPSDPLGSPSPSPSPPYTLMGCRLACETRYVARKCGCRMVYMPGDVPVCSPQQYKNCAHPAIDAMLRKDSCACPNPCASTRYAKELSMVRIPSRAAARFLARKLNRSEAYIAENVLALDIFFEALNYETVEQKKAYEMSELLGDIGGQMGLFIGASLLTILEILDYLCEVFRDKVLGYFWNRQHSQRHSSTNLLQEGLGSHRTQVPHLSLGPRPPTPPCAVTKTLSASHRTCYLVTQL

[6] = molecular target: T1, rat ASIC3; test: two-electrode voltage clamp, homomeric rat ASIC3 in X. laevis oocytes; assay type: cell-based
[7] = molecular target: T3, rat ASIC1a (Rattus norvegicus, UniProt P55926); test: steady-state desensitization of rat ASIC1a; assay type: cell-based; conditions: 1 mM Taf; without Taf 9.1 ± 2.5%; stimulus pH 5.5; mean ± SEM, n = 5; p = 0.9; read-out: integral current at conditioning pH 7.0, % of control
T3 construct: expressed in transfected cells; host or cells: Xenopus laevis oocytes injected with cRNA from a PCi plasmid
T3 sequence (P55926 1-526): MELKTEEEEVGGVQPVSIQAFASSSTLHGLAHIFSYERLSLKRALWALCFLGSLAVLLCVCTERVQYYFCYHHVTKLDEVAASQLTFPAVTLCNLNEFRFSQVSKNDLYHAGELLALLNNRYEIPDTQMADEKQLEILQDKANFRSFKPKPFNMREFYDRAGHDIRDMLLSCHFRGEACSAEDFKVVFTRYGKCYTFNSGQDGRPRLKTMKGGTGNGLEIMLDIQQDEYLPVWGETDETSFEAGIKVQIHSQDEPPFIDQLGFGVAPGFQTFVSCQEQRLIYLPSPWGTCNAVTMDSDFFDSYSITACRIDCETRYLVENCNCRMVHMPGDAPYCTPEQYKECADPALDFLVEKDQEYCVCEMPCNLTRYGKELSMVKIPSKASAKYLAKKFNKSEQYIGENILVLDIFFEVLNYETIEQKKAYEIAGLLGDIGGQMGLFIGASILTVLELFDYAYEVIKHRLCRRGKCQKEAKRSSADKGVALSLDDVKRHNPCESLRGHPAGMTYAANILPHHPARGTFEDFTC

[8] = molecular target: T2, human ASIC3; test: steady-state desensitization of human ASIC3; assay type: cell-based; conditions: pH 7.4; 1 mM Taf; without Taf 11 ± 2%; control = pH drop 8.0 to 5.5; mean ± SEM, n = 5; p = 0.005; read-out: total integral current at conditioning pH 7.4, % of control
[9] = molecular target: T1, rat ASIC3; test: steady-state desensitization (SSD) of rat ASIC3; assay type: cell-based; conditions: pH 7, without Taf 1.4 ± 0.2%, control = pH drop 7.4 to 5.5, mean ± SEM, n = 5, read-out: integral current at conditioning pH 7.0, % of control
[10] = solution for subcutaneous administration; ref manufacturer's website https://sotex.ru/production/catalog/detail.php?ELEMENT_ID=4952; cited from earlier work
Excerpt: Due to the modulating effect of Taf towards ASIC3 in peripheral neurons, the proven analgesic effect of Taf on human may be accompanied by the development of side effects such as pain, mechanical hyperalgesia, inflammatory muscle and joint hyperalgesia, etc., where ASIC3 plays a crucial role. In addition, the significant modulating effect on ASIC1b/3 heteromers (Figure 7) may also have a negative impact on both peripheral acute and acid-induced chronic pain, where the ASIC1b-containing channels also play an important role. Indeed, the recommended dose for subcutaneous a ...

[11] = molecular target: T3, rat ASIC1a; test: two-electrode voltage clamp, homomeric rat ASIC1a in X. laevis oocytes; assay type: cell-based
[12] = system: ASIC channels; conditions: cited from earlier work
[13] = system: ASIC1; conditions: cited from earlier work
[14] = system: ASIC1a and ASIC1a-containing channels; conditions: cited from earlier work

Molecule: Cc1nc(NC(=N)N)nc2ccccc12 [2-guanidine-4-methylquinazoline]
- nocifensive behavior [1]: induce nocifensive behavior in mice

Molecule: N=C(N)NC(=O)c1nc(Cl)c(N)nc1N [Ami, amiloride]
- chronic morphine tolerance [2]: reduce chronic morphine tolerance
- action on ASIC channels [3]: capable of blocking ASIC channels and acting as an ASIC3-positive modulator
- nH of inhibition in the presence of Taf [4]: 1.06 ± 0.37
- residual integral current in the presence of Taf, % of control [4]: 129 ± 9%
- τdes [4]: 732 ± 46 ms
- IC50 ([4]; half-maximal inhibitory concentration (IC50)): 66.9 ± 5.2 µM
- IC50 ([4]; half-maximal inhibitory concentration (IC50) in the presence of Taf): 61.5 ± 21.2 µM
- nH of inhibition ([4]; pH 7.4): 0.87 ± 0.05
- residual integral current (lower asymptote), % of control ([4]; pH 7.4): 36 ± 2%

Molecule: C[C@@H](NC(=O)[C@@H](N)Cc1ccc(O)cc1)C(=O)N[C@@H](Cc1ccccc1)C(=O)NCC(N)=O [Taf, Tyr-D-Ala-Phe-Gly-NH2] (H-Y[dA]FG-NH2)
- EC50 [5]: 330 ± 80 µM
- Imax (upper asymptote), % of control ([5]; integral current, pH 8.0 to 5.5, mean ± SEM, 5 cells): 373 ± 28%
- recommended subcutaneous dose concentration (~9 mM) over EC50 for human ASIC3 ([5]; ~9 mM solution vs EC50 on hASIC3): approximately 30 times
- EC50 [6]: 86 ± 24 µM
- increase in the integral current, protocol p.-a. ([6]; 0.3 mM Taf pre-applied 30 s in resting state, conditioning pH 7.4, stimulus pH 5.5, mean ± SEM, n = 5, p < 0.001): 116 ± 5%
- increase in the integral current ([6]; 0.3 mM Taf, Vh −50 mV, pH 5.5 stimulus, isoform screening, mean ± SEM, n = 5, p < 0.001): 115 ± 6%
- maximum current (Imax), to control ([6]; integral current vs control (pH drop from 7.4 to 5.5), mean ± SEM, n = 9): 251 ± 15%
- remaining activity at 1000 µM [7]: 9.4 ± 2.5%
- remaining activity at 1000 µM [8]: 22 ± 4%
- remaining activity at 300 µM ([9]; 0.3 mM Taf, p = 0.009): 3.6 ± 0.3%
- remaining activity at 2000 µM ([9]; 2 mM Taf): 50 ± 3%
- side effects [10]: peripheral neuropathy, itching, and pain at the injection site
- EC50 [11]: 1050 ± 270 µM
- increase in the integral current ([11]; 0.3 mM Taf, Vh −50 mV, pH 7.4 to 5.5, mean ± SEM, n = 5, p < 0.001): 40 ± 5%
- integral current Imax, % of control ([11]; pH 7.4 to 5.5, mean ± SEM, n = 10, same as rASIC3 (p = 0.45)): 332 ± 103%

Molecule: CN1CC[C@]23c4c5ccc(O)c4O[C@H]2[C@@H](O)C=C[C@H]3[C@H]1C5 [morphine]
- effect on ASIC channels [12]: negative modulators

Molecule: COc1ccc2c3c1O[C@H]1C(=O)CC[C@@]4(O)[C@@H](C2)N(C)CC[C@]314 [oxycodone]
- effect on ASIC channels [12]: positive modulating effect

Molecule: DAMGO
- effect on ASIC channels [12]: negative modulators

Molecule: GTACSCGNSKGIYWFYRPSCPTDRGYTGSCRYFLGTCCTPAD (disulfide 4-37, 6-30, 20-38) [APETx2]
- τdes ([4]; 100 nM APETx2, control 282 ± 22 ms, mean ± SEM, n = 5, p = 0.2): 240 ± 22 ms
- nH of inhibition in the presence of Taf ([4]; APETx2 + 0.3 mM Taf, mean ± SEM, 5–6 cells): 1.11 ± 0.05
- nH of inhibition ([4]; APETx2 alone, mean ± SEM, 5–6 cells): 1.37 ± 0.05
- inhibition of the channel ([4]; APETx2 alone, pH 7.4 to 5.5): completely inhibited the channel

Molecule: dynorphin
- acidosis-induced neuronal death [13]: increase the acidosis-induced neuronal death
- effect on proton-evoked currents [14]: restore the proton-evoked currents
